Measured values reported in patent US20230158159A1, “CHIMERIC DEGRADERS OF CYCLIN-DEPENDENT KINASE 9 AND USES THEREOF” (Massachusetts Institute of Technology, priority 2020, published 2023).

Assays:
[1] = test system: Cyclin T; experiment: Cyclin T protein levels, Western blot, MOLT-4 cells; type: cell-based, human; conditions: MOLT-4 leukemia cells, 10 μM, 8 h treatment time
Protocol: Compounds 4 and 5 (KI-ARv-03-D09 and -D10) incorporate such bi-aryl extensions and were therefore tested for their ability to degrade CDK9 and/or its associated cyclin T. In addition, the corresponding molecules KB-0742-D01 and -D02 which comprise the […] warhead and bi-aryl extensions were evaluated.

[2] = target: T1, CDK9 (Homo sapiens, UniProt P50750); experiment: CDK9 degradation assay, Western blot, MOLT4 cells; type: cell-based; parameters: endogenous in cells; host or cells: MOLT4 (MOLT-4); conditions: for CDK9 protein levels: MOLT-4 leukemia cells, 8 h treatment time; for reduction of CDK9 protein levels: 1 μM, compared to DMSO and parent compound KI-ARv3; for concentration at which the concentration dependent decrease of CDK9 levels starts: dose range 10 nM-10 μM
T1 sequence (P50750 whole entry): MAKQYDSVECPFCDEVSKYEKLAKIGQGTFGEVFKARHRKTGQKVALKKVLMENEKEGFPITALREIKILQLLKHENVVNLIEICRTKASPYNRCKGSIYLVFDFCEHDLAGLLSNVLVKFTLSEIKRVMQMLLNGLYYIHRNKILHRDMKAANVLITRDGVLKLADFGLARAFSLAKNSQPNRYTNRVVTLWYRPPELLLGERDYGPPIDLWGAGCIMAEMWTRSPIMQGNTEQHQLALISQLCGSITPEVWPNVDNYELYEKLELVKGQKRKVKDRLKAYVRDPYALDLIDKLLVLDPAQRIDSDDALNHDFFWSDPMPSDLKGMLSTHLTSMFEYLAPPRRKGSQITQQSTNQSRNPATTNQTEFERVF
T1 sequence (O60563 whole entry partner): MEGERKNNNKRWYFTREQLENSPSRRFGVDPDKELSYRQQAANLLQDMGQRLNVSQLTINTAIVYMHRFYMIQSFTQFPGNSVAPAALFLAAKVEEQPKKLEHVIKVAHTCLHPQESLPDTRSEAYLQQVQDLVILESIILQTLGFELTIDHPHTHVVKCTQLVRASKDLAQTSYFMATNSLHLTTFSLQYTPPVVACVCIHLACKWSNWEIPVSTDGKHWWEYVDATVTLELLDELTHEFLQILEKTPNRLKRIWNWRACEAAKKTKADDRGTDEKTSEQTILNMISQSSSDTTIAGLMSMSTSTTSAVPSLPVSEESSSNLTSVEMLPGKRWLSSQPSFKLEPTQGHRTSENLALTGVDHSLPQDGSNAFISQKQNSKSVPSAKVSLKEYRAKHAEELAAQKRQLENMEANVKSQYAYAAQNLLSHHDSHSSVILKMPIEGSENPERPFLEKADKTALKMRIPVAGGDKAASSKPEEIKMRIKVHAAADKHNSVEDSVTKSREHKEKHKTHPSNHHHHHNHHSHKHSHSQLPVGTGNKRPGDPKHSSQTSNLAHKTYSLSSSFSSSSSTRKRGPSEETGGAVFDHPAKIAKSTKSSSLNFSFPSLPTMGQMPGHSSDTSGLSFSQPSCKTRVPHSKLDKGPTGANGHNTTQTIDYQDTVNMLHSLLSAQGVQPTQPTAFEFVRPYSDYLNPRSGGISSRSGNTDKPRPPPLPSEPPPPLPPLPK
Protocol: Efficiencies were measured by monitoring their impact on CDK9 itself as well as downstream targets of CDK9 phosphorylation such as AR and Pol II.

[3] = test system: AR; experiment: AR and AR splice variant protein levels, Western blot, 22Rv1 cells; type: cell-based; conditions: FIG. 7 (24 hours, 10 nM-10 μM)
Protocol: (§1) Compounds were evaluated in ARv7 positive 22Rv1 cells in order to assess their potential to degrade CDK9 and its associated downstream phosphorylation targets Pol II as well as AR and related splice variants (FIGS. 6 and 7).

[4] = test system: Pol II; experiment: Pol II protein levels, Western blot, 22Rv1 cells; type: cell-based; conditions: FIG. 7 (24 hours, 10 nM-10 μM)
Protocol: as §1

[5] = target: T1, CDK9; experiment: CDK9 degradation assay, Western blot, MV-4-11 cells; type: cell-based; parameters: endogenous in cells
Protocol: (§2) FIGS. 8A-C show evaluation of KI-ARv3-D07 and -08 in MV-4-11 (FIG. 8A) and Rh-30 (FIG. 8C) cells as well as side by side comparison of both cell lines (FIG. 8B). […] FIG. 8B treatment time is 8 hr.
(§3) The effect of KI-ARv3-D07 and -08 on impacting CDK9 levels in the additional cell lineages MV-4-11 (leukemia cell line) and the Rh-30 (rhabdomyosarcoma cell line) at 6 h and 8 h treatment times (FIG. 8) was also evaluated. […] In Rh-30 no changes in CDK9 levels were detected at any compound concentration (10 nM, 100 nM, 500 nM, 1 μM, 10 μM) at either 6 h or 8 h treatment time (FIGS. 8B and 8C).

[6] = target: T1, CDK9; experiment: CDK9 degradation assay, Western blot, 22Rv1 cells; type: cell-based; parameters: endogenous in cells; host or cells: 22Rv1; conditions: for reduction of CDK9 levels / degradation of CDK9: 10 nM-10 μM
Protocol: as §1

[7] = target: T1, CDK9; experiment: CDK9 degradation assay, Western blot, Rh-30 cells; type: cell-based; parameters: endogenous in cells; host or cells: 22Rv1; conditions: for changes in CDK9 levels: Rh-30 cells, 10 nM, 100 nM, 500 nM, 1 μM, 10 μM, 6 h or 8 h
Protocol: as §2
FIGS. 9A-D show evaluation of KI-ARv3-D11 and -D18 in 22Rv1 (FIG. 9A, 16 h treatment time), MOLT-4 (FIG. 9B, 7 h treatment time), and Rh-30 (FIGS. 9C and 9D, 16 h treatment time) cell lines.
as §3

[8] = MOLT4 cells, 1 μM and 5 μM, 6 hours, compared to DMSO
[9] = MOLT4 cells, low dose 1 μM, 24 hours

SMILES	Cyclin T protein levels [1]	CDK9 protein levels ([2]; 10 μM)	reduction of CDK9 levels ([6]; 6 hours)	degradation of CDK9 ([6]; 24 hours)	changes in CDK9 levels [7]	CDK9 degradation [2, 8]	reduction of CDK9 protein levels ([2]; MOLT4 cells, 6 hours)	concentration at which the concentration dependent decrease of CDK9 levels starts ([2]; MOLT4 cells, 6 hours)	CDK9 degradation [2, 9]	further results
CCCc1cc(NC2CCC(NC(=O)c3ccc(-c4ccc(CN)cc4)cc3)C2)n2nccc2n1 (stereo not drawn) [KI-ARv3-D10, 4′-(aminomethyl)-N-(3-((5-propylpyrazolo[1,5-a]pyrimidin-7-yl)amino)cyclopentyl)-[1,1′-biphenyl]-4-carboxamide]	reduction in protein levels	reduction in protein levels								
CCCc1cc(N[C@@H]2CC[C@@H](NC(=O)c3ccc(-c4ccc(CNc5cccc6c5C(=O)N(C5CCC(=O)NC5=O)C6=O)cc4)cc3)C2)n2nccc2n1 (stereo partly drawn) [KI-ARv3-D08, 4′-(((2-(2,6-dioxopiperidin-3-yl)-1,3-dioxoisoindolin-4-yl)amino)methyl)-N-((1R,3R)-3-((5-propylpyrazolo[1,5-a]pyrimidin-7-yl)amino)cyclopentyl)-[1,1′-biphenyl]-4-carboxamide]			subtle reduction	significant CDK9 degradation	no changes	CDK9 degradation was observed	approximately 80%	100 nM	reduced	global AR protein levels [3]: no observed effect; global Pol II protein levels [4]: no observed effect; concentration at which reduction of CDK9 levels starts ([5]; 6 h and 8 h treatment time): 350 nM; reduction of CDK9 levels ([5]; 6 h and 8 h treatment time): approximately 60%; rescue experiments using proteasome inhibitor MG132 ([5]; FIG. 8A): reversible and proteasome dependent; concentration at which reduction in CDK9 protein levels starts ([6]; 6 hours): 500 nM; concentration at which significant CDK9 degradation starts ([6]; 24 hours): 100 nM; CDK9 degradation ([2]; MOLT4 cells, 24 hours, across the whole range 10 nM-10 μM): approx. 80%
CCC(CC)c1cc(N[C@H]2CC[C@H](NC(=O)c3ccc(-c4ccc(CN)cc4)cc3)C2)n2nccc2n1 [KB-0742-D02, 4′-(aminomethyl)-N-((1S,3S)-3-((5-(pentan-3-yl)pyrazolo[1,5-a]pyrimidin-7-yl)amino)cyclopentyl)-[1,1′-biphenyl]-4-carboxamide]	reduction in protein levels	reduction in protein levels								
CCCc1cc(N[C@@H]2CC[C@@H](NC(=O)CCCCCCCCCNc3cccc4c3C(=O)N(C3CCC(=O)NC3=O)C4=O)C2)n2nccc2n1 (stereo partly drawn) [KI-ARv3-D07, 10-((2-(2,6-Dioxopiperidin-3-yl)-1,3-dioxoisoindolin-4-yl)amino)-N-((1R,3R)-3-((5-propylpyrazolo[1,5-a]pyrimidin-7-yl)amino)cyclopentyl)decanamide]			no significant reduction	not able to facilitate degradation of CDK9	no changes	CDK9 degradation was observed	approximately 80%	100 nM	reduced	changes in CDK9 levels ([5]; 6 h and 8 h, FIGS. 8A and 8B): did not lead to significant changes; degradation of CDK9 ([2]; MOLT4 cells, 24 hours, 10 μM): not demonstrated; hook effect on CDK9 degradation ([2]; MOLT4 cells, high dose 5 μM, 24 hours): hook effect
CCCc1cc(N[C@@H]2CC[C@@H](NC(=O)c3ccc(-c4ccc(CN[C@H](C(=O)N5C[C@H](O)C[C@H]5C(=O)NCc5ccc(-c6scnc6C)cc5)C(C)(C)C)cc4)cc3)C2)n2nccc2n1 [KI-ARv3-D18, (2S,4R)-1-((S)-3,3-dimethyl-2-(((4′-(((1R,3R)-3-((5-propylpyrazolo[1,5-a]pyrimidin-7-yl)amino)cyclopentyl)carbamoyl)-[1,1′-biphenyl]-4-yl)methyl)amino)butanoyl)-4-hydroxy-N-(4-(4-methylthiazol-5-yl)benzyl)pyrrolidine-2-carboxamide]										reduction of CDK9 levels ([7]; 25 nM, FIG. 9D (Rh-30, 16 h treatment time)): approximately 80%
